# Legend:
# TL in tears = assay: Pharmacological Study (1): amount of TL in tears after administration to eyelid skin; format: in vivo, Rabbits (Japanese White, females); conditions: cream 1% (w/v), eyelid skin of one eye, once per day 40 μL, two weeks after application vs before; rabbits with lower lacrimal gland and nictitating membrane excised, ketoconazole; mean ± standard error, n=4
# Protocol: A study was conducted in rabbits as to whether or not the administration of nandrolone decanoate and methenolone acetate to eyelid skin increases the amount of TL in tears.
# A cream containing 1% (w/v) of nandrolone decanoate, a cream containing 1% (w/v) of methenolone acetate and a base were prepared in the manner of the compositions indicated in Table 1.
# Rabbits (Japanese White, females, purchased from Kitayama Labes Co., Ltd.) were used in the study. […]
# Schirmer test paper (Showa Yakuhin Kako Co., Ltd.) was inserted into the conjunctival sac of the lower eyelid before application and two weeks after application to collect tears, followed by subjecting each of the collected tear specimens to slab gel electrophoresis. Following electrophoresis, the gel was stained with Coomassie Brilliant Blue stain, all protein bands, including the TL band at a molecular weight of about 17 kilodaltons, were detected, and the percentage of TL (% TL) in the total amount of protein present in the tears was calculated by image analysis of the resulting gel. The difference between the % TL before application and the % TL after application was determined for each individual and expressed as an increase in % TL (A % TL).
# [1] = Pharmacokinetics Study (2): nandrolone concentration in the lacrimal glands after nandrolone decanoate to eyelid skin or instillation; format: in vivo, Rabbits (Japanese White, males); conditions: 2, 4, 8, 24 hours, LC-MS/MS, FIG. 2
# Protocol: A study was conducted for change over time of nandrolone concentration in the lacrimal glands after administration of nandrolone decanoate to eyelid skin, or instillation thereof.
# 0.4 g of nandrolone decanoate were added to castor oil followed by bringing to a volume of 20 mL and dissolving therein to prepare an ointment containing 2% (w/v) of nandrolone decanoate. In addition, a preparation of the same composition was used as an ophthalmic solution containing nandrolone decanoate.
# Rabbits (Japanese White, males, purchased from Kitayama Labes Co., Ltd.) were used in the study. Fur of the right upper eyelid was shaved by using an electric hair clipper under general anesthesia on the day before drug administration followed by fitting the rabbits with Elizabethan collars prior to administration. […]
# The rabbits were euthanized at 2, 4, 8 and 24 hours after administration and the right upper lacrimal gland tissue was excised (from 3 animals at each time). The lacrimal gland tissue was homogenized in methanol and the concentration of nandrolone (active form of nandrolone decanoate) in the centrifuged supernatant was measured by LC-MS/MS. The concentration of nandrolone in the lacrimal gland tissue was calculated from the wet weight of the tissue measured prior to homogenization and the concentration of nandrolone in the measured specimen.
# [2] = system: lipophilin CL2 (L-CL2) gene; assay: Pharmacological Study (2): expression level of lipophilin CL2 (L-CL2) gene in lacrimal gland cells, quantitative PCR; format: cell-based, rabbits (Japanese White, females); conditions: isolated rabbit lacrimal gland cells, drug culture for 2 days, 0.1% DMSO; FIG. 3
# Protocol: A comparative study of the action of increasing the expression level of lipophilin CL2 (L-CL2) gene by both nandrolone decanoate and methenolone acetate was conducted by allowing both drugs to act on lacrimal gland tissue cells. Furthermore, lipophilins are proteins that are synthesized in the lacrimal gland and are observed to be present in large amounts in the tears of humans and rabbits.
# Each drug was dissolved in DMSO followed by diluting with DMEM/F-12 (D/F medium) to a final DMSO concentration of 0.1%. […]
# Quantitative PCR was carried out by using primers designed by respectively joining to cDNA synthesized from the drug-treated lacrimal gland cells using the CellAmp Direct RNA Prep Kit and PrimeScript RT MasterMix (both manufactured by Takara Bio, Inc.), the QuantiFast SYBR Green PCR Kit (Qiagen Corp.), Rabbit L-CL2 gene (Accession No.: NM_001082095) and Rabbit GAPDH gene (Accession No.: NM_001082253). The expression level of L-CL2 gene of each of the drug-treated cells was corrected with expression of each GAPDH gene and expressed as the relative ratio to the expression level of cells treated with base (D/F medium containing 0.1% DMSO).
smiles,measurement,setting,value
"CCCCCCCCCC(=O)O[C@H]1CC[C@H]2[C@@H]3CCC4=CC(=O)CC[C@@H]4[C@H]3CC[C@]12C [Nandrolone decanoate, 17β-decanoyloxy-19-nor-4-androsten-3-one]",Δ % TL (increase in percentage of TL in total tear protein),TL in tears,4.30 ± 0.473%
same,concentration of nandrolone in the lacrimal gland over time,[1]; single 50 μL ointment 2% (w/v) nandrolone decanoate to right upper eyelid skin,somewhat lower than the concentration of methenolone in lacrimal gland tissue after administration of methenolone acetate to eyelid skin
same,concentration of nandrolone in the lacrimal gland over time,[1]; single 50 μL ophthalmic solution 2% (w/v) nandrolone decanoate by instillation into right eye,much lower than in the case of administration to eyelid skin
same,"expression of L-CL2 gene (corrected with GAPDH, relative ratio to base-treated cells)",[2],increases expression of L-CL2 gene in lacrimal gland cells
